The source of these data is patent US20210393549A1, “New use of R-enantiomer of adrenergic beta 2 receptor agonists for treatment of inflammatory bowel disease and its extra intestinal manifestations” (priority 2018, published 2021).

Like-named read-outs stand apart in the source and are kept apart here.

The test system of assay [1] is DSS induced acute colitis. The following applies: for Hist score (histological score): epithelium 0-4 plus infiltration 0-4; for Hist score (histological score) / Col Length (colon length): tenth day; for Hist score (histological score) / FOB (fecal occult blood) / Weight / DAI (disease active index) / Col Length (colon length): 1 mg/kg (R-B, S-B 10 mg/kg; RS-C 2 mg/kg); for Hist score (histological score) / FOB (fecal occult blood) / Weight / Col Length (colon length): mean ± SD; for FOB (fecal occult blood): grade 0, 2, 4; for FOB (fecal occult blood) / Weight / Col Length (colon length): i.g. daily 8 days; for DAI (disease active index): score 0 to 12, i.g. daily 8 days from 2nd day of DSS, n=5; for colon histology (H&E), in words: Example 1, compared with untreated DSS mice. An excerpt:
In one embodiment, IBD was induced in mice by add DSS into drink water for 7 days. […] (Cooper, S. et al., Clinic pathologic study of dextran sulfate sodium experimental murine colitis, Laboratory Investigation, vol. 69, no. 2, p. 238-249, 1993)
The mice were scarified at day 10th for anatomy and histology evaluations. […] Each of the above histological features was scored individually and added together which is then collectively expressed as “histological score”, for quantitative evaluation (Cooper, S. et al., above).
Male C57BL mice (8-10 weeks, 18-20 g) were grouped into control (drinking water only), DSS and DSS plus treatment groups (n=5). Acute colitis was induced by feeding mice with 2% (w/v) dextran sulfate sodium (DSS) (molecular mass 36-50 kDa) added to the drinking water given ad libitum for 7 days. At the end of seventh day, DSS was removed and animals received only drinking water for 2 days. The animals were euthanized for anatomical and histological examination at the tenth day after DSS ingestion.
R-salbutamol (R-S) (1 mg/kg, S-salbutamol (S-S) (1 mg/kg), R-terbutaline (R-T) (1 mg/kg), S-terbutaline (S-T) (1 mg/kg), R-bambuterol (10 mg/kg), S-bambuterol (S-B) (10 mg/kg), R-clenbuterol (R-C) (1 mg/kg), RS-clenbuterol (RS-C) (2 mg/kg) were administered i.g. daily, starting from the 2nd day of DSS induction for consecutive 8 days. Dexamethasone (Dex), 1 mg/kg) was used as a reference drug.
Evaluation of disease symptoms and histological changes Disease activity index (DAI): Animals were monitored daily for weight, water/food consumption, morbidity, stool consistency and fecal blood. […] The colon length was recorded as an indicator of inflammation. The entire colon was cut open longitudinally and gently flushed with sterile phosphate-buffered saline (PBS) to remove any traces of feces for pathology preparation. Colon segments were fixed in 10% neutral buffered formalin. Tissues were embedded in paraffin, sectioned, mounted on slides. H&E-stained paraffin section images were acquired. Pathological evaluation was conducted in a blinded manner.
Histological Score: the scores were given as follows: epithelium, 0=normal morphology, 1=loss of goblet cells, 2=loss of goblet cells in large areas, 3=loss of crypts, and 4=loss of crypts in large areas; and inflammation cells infiltration, 0=no infiltrate, 1=infiltrate around the crypt basis, 2=infiltrate reaching the muscularis mucosae, 3=extensive infiltration reaching the muscularis mucosae and thickening of the mucosa with abundant edema, and 4=infiltration of the submucosa. Data were presented as mean±the standard deviation (SD).

Assay [2] concerns DSS induced sub-acute colitis. The assay is classed as in vivo. On the set-up: DAI (disease active index) / FOB (fecal occult blood) / Hist score (histological score): scale not given here; Weight / Col Length (colon length): unit not given here. An excerpt: This invention also disclosed the used of R-salbutamol for treatment of sub acute or chronic phases of IBD. In one embodiment, IBD was induced by DSS as mentioned above, along with the treatment of R-salbutamol, at day 7th, DSS was removed and replaced with drinking water for additional 2 weeks. The disease active index (DAI) of mice was examined and evaluated periodically. The mice were scarified for pathological and histological evaluations at day of 23rd. In DSS induce IBD mice, there were significant loss of weight and fecal occult blood at day 14th and 22nd. The overall condition of colitis was severe although there was slightly improvement comparing the day 7th. The colon-rector length was significant shortened, and histological score were significant higher from control. In mice with DSS induced colitis, there were significant mononuclear leucocytes infiltration, few newly grew crypts with architectural disarray, denegation of epithelia, mucosa aberrant. There was also deep mucosal lymphocytosis, destruction of lamina propria and sometimes, transmural inflammation.
Same as example 1, except • 1), Three weeks' study with one week treatment.
DSS and all the treatment was removed and replaced with drinking water at the end of 1st week. Mice were given drink water and food ad libitum for additional 2 weeks.

For assay [3], the system named is DSS induced sub-acute colitis. Description: Prolonged (two weeks) treatment in DSS induced sub-acute colitis. The assay is classed as in vivo, mice. To be noted: evaluation at 23rd day, salbutamol 1 mg/kg, bambuterol 10 mg/kg. An excerpt:
Same as example 2, except. 1), Two Weeks Treatment within a Three Weeks of Study
DSS was removed from drinking water at the end of 1st week. The treatments were started at 1st day for consecutive 14 days (2 weeks). Only drinking water given for the 3rd week. The evaluation and examination were made at 23rd day as did in example 1.

Assay [4] deals with knee joints (articular cartilage, meniscus). Description: Damage of knee joints in DSS induced IBD mice. The format is in vivo. The following applies: compared with untreated DSS mice. An excerpt:
In one embodiment, in DSS induced IBD mice, there was also a damage of knee joints. The articular cartilage structure became thinner and partially destroyed. The chondrocytes were degenerated, decreased and clustered. The meniscuses were damaged and lost its structural integrity. In X-ray, the layer of articular cartilage was thinner and bone structure was decreased. […] The articular cartilage and bone structure increased toward normal.

Assay [5] relates to DNCB induced allergic contact dermatitis. Description: DNCB induced allergic contact dermatitis model (eczema). The format is in vivo, mice. To be noted: oral 8 days, indomethacin 5 mg/kg. How it is done:
Mice was shaved at abdominal area DNCB (100 μL 0.5%) is dissolved and applied to the shaved skin to induce Atopica dermatitis for 2 consecutive days. At day 8th, DNCB was applied to both inner and outer surfaces of ears to induce eczema. Treatment of R-salbutamol and indomethacin were given orally at day 1st for consecutive 8 days. The mice were scarified at day 9th for examination and evaluation. Mice were divided into four groups (n=8), namely A, Control; B. Eczema (DNCB); C. Eczema plus R-Salbutamol of 0.05, 0.1 or 0.2 mg/kg; D. Eczema plus indomethacin of 5 mg/kg. The inflammation scores were evaluated according to swelling, erythema, scratch and thickness of both ears. [table]

Assay [6] concerns TNBS-induced colitis. Description: TNBS-induced colitis (model for Crohn's disease). The format is in vivo, Male mice. The following applies: TNBS treated mice. An excerpt: Male mice colitis was induced by rectal co-administration of ethanol and TNBS (Trinitrobenzenesulfonic acid). Severe colitis in mice that was characterized by weight loss and diarrhea. Histologically there were loss of normal structures, visible discrete epithelioid granuloma, multiple erosive lesions, massive transmural inflammation infiltration of lymphocytes, and the loss of goblet cells. […] There was significant alleviation of lesions, few inflammatory infiltration with growing crypts and recovery mucosa epithelia along the column. […] In addition, in TNBS treated colitis mice, there were perianal symptoms: erythema, abscesses and ulcers found in some mice, which may lead to perianal fissures or fistulas. […] The therapeutically effects of R-salbuterol, R-clenbuterol and R-bambuterol on the symptoms in TNBS induced Crohn's disease has never been reported in prior art.

[7] abbreviates: acute DSS colitis, compared with untreated DSS mice.
Setting [8] is: one week treatment, evaluation at 23rd day, R-S, S-S 1 mg/kg, R-B, S-B 10 mg/kg.
[9] abbreviates: sub-acute or chronic DSS colitis, compared with untreated DSS mice.
[10] abbreviates: R-Salbutamol 0.05, 0.1 or 0.2 mg/kg.

For `C[C@@H]1C[C@H]2[C@@H]3CCC4=CC(=O)C=C[C@]4(C)[C@@]3(F)[C@@H](O)C[C@]2(C)[C@@]1(O)C(=O)CO` [DEX, Dexamethasone], in assay [1], the “Hist score (histological score)” value is 6 ± 0.5, the “FOB (fecal occult blood)” value was determined as 2.5 ± 0.5, the Weight is reported as 88 ± 2.4 and the “DAI (disease active index)” value stood at 7. Besides, the “Col Length (colon length)” value in assay [1] is given as 7.1 ± 0.2.
For the molecule `CC(C)(C)NCC(O)c1cc(Cl)c(N)c(Cl)c1` (stereo not drawn) [RS-C, RS-clenbuterol], in assay [1] (setting [7]), the “DAI, in words” value is reported as “much less improvement than DSS mice treated with R-clenbuterol” and the “histological score, in words” value is “better than DSS untreated but worse than R-enantiomer treated mice”. Besides, in assay [1], the “Hist score (histological score)” value amounted to 6 ± 0.5, the “FOB (fecal occult blood)” value is recorded as 4 ± 0.1, the Weight is listed as 87 ± 2 and the “DAI (disease active index)” value was determined as 10. In assay [1], the “Col Length (colon length)” value is recorded as 6.5 ± 0.2^.
For the molecule `CN(C)C(=O)Oc1cc(OC(=O)N(C)C)cc([C@H](O)CNC(C)(C)C)c1` [S-B, S-bambuterol], in assay [1], the “colon histology (H&E), in words” value is “no signs of improvements”; the “Hist score (histological score)” value was 7.5 ± 1^; the “FOB (fecal occult blood)” value is listed as 2.5 ± 0.5; the Weight was 81 ± 3.2. Also, in assay [1], the “DAI (disease active index)” value is given as 12 and the “Col Length (colon length)” value is reported as 6 ± 0.6. In addition, in assay [2] (setting [8]), the “Col Length (colon length)” value was 6.8 ± 0.1, the “DAI (disease active index)” value came out at 12, the “FOB (fecal occult blood)” value was 3.9 ± 0.1 and the “Hist score (histological score)” value is reported as 6.9 ± 1^. This molecule also had a Weight in assay [2] (setting [8]) of 96 ± 1.1. Further, the “length of colon-rectors, in words” value in assay [2] (sub-acute DSS colitis, compared with untreated DSS mice) is given as “shorter”. The “body weights, in words” value in assay [2] (sub-acute or chronic DSS colitis) is listed as “lower”. For the same molecule, the “histological index / histological score, in words” value in assay [2] (setting [9]) is “markedly higher than untreated DSS mice”. For the same molecule, in assay [2] (sub-acute or chronic DSS colitis, day 14th and 22nd, compared with untreated DSS mice), the “fecal occult blood, in words” value was “more severe”. In addition, in assay [3], the “DAI, in words” value is “markedly higher than untreated DSS group” and the “histological score, in words” value is recorded as “markedly higher than untreated DSS group”. Further, the “damage of articular cartilage, meniscus and bone structure of knee joints” value in assay [4] is “exacerbated”.
`CC(C)(C)NC[C@@H](O)c1cc(O)cc(O)c1` [S-T, S-terbutaline]: in assay [1], the “colon histology (H&E), in words” value was “no signs of improvements”; the “Hist score (histological score)” value worked out at 7 ± 1; the “FOB (fecal occult blood)” value worked out at 4 ± 0.5; the Weight is reported as 80 ± 2.9. For the same molecule, in assay [1], the “DAI (disease active index)” value is 12 and the “Col Length (colon length)” value is 5.9 ± 0.5. For the same molecule, in assay [2] (setting [9]), the “DAI, in words” value is recorded as “much worse than untreated DSS mice” and the “histological index / histological score, in words” value is “much worse than untreated DSS mice”.
Take `CC(C)(C)NC[C@@H](O)c1cc(Cl)c(N)c(Cl)c1` [S-clenbuterol]: in assay [2] (setting [9]), the “DAI, in words” value is on record as “much worse than untreated DSS mice” and the “histological index / histological score, in words” value is “much worse than untreated DSS mice”.
`COc1ccc2c(c1)c(CC(=O)O)c(C)n2C(=O)c1ccc(Cl)cc1` [indomethacin, reference compound]: in assay [5] (setting [10]), the “erythema score of both ears” value is on record as “lesser effects” and the “thickness score of both ears” value is recorded as “lesser effects”. For the same molecule, the “eczema histology and inflammatory infiltration” value in assay [5] (dose-dependent response) is “little effects on eczema”.
For the molecule infliximab, the “submucosa fibrosis and narrowing of intestinal lumen” value in assay [6] was “enhanced the submucosa fibrosis and lumen narrowing”; in assay [6] (listed as IFX), “significant submucosa fibrosis and narrowing in lumen”.
